In US10858335B2 (Rigel Pharmaceuticals, Inc., priority 2014, dated 2020):

Tested on: GDF8 signaling (p-SMAD-3 (Ser423/425))
Assay: AlphaScreen SureFire SMAD3 (p-Ser423/425) assay, GDF8-stimulated cells (GDF pSMAD)
Format: cell-based
Conditions: Mus musculus, MPC-11, MPC11; GDF8-stimulated; p-SMAD3 AlphaScreen; read-out: GDF pSMAD (MPC11) (inhibition of GDF8 signaling)

IC50 [nM]	SMILES
1830	Fc1ccc(-c2ncccc2-c2ccc3ncncc3c2)cc1Cl [compound 506, 6-(2-(3-Chloro-4-fluorophenyl)pyridin-3-yl)quinazoline]
138	Cc1cc(-c2ncccc2-c2ccc3ncc(C(=O)NC4CCN(C(C)C)CC4)n3c2)ccc1F [compound 700, 6-(2-(4-Fluoro-3-methylphenyl)pyridin-3-yl)-N-(1-isopropylpiperidin-4-yl)imidazo[1,2-a]pyridine-3-carboxamide]
9220	Cc1ccc(Nc2ncnc3ccc(-c4cccnc4-c4ccc(F)c(Cl)c4)cc23)cn1 [compound 491, 6-(2-(3-Chloro-4-fluorophenyl)pyridin-3-yl)-N-(6-methylpyridin-3-yl)quinazolin-4-amine]
136	Nc1ncnc2ccc(-c3cccnc3-c3cc(Cl)c(F)cc3F)cc12 [compound 450, 6-(2-(5-Chloro-2,4-difluorophenyl)pyridin-3-yl)quinazolin-4-amine]
94.7	Cc1cc(-c2ncccc2-c2ccc3ncsc3n2)ccc1F [compound 303, 5-(2-(4-Fluoro-3-methylphenyl)pyridin-3-yl)thiazolo[5,4-b]pyridine]
